Measurements as given in US12268682B2, “Anticancer drug FL118 formulation for treatment of human cancer” (CANGET BIOTEKPHARMA, LLC, priority 2019, dated 2025).
Read-outs that look alike come from different tables or passages of the source.

How the values were obtained:
[1] = target: Pgp/MDR1 (Homo sapiens, UniProt P08183); conditions: cited from earlier work
[2] = target: T1, ABCG2/BCRP (Homo sapiens, UniProt Q9UNQ0); conditions: cited from earlier work
T1 sequence (Q9UNQ0 1-655): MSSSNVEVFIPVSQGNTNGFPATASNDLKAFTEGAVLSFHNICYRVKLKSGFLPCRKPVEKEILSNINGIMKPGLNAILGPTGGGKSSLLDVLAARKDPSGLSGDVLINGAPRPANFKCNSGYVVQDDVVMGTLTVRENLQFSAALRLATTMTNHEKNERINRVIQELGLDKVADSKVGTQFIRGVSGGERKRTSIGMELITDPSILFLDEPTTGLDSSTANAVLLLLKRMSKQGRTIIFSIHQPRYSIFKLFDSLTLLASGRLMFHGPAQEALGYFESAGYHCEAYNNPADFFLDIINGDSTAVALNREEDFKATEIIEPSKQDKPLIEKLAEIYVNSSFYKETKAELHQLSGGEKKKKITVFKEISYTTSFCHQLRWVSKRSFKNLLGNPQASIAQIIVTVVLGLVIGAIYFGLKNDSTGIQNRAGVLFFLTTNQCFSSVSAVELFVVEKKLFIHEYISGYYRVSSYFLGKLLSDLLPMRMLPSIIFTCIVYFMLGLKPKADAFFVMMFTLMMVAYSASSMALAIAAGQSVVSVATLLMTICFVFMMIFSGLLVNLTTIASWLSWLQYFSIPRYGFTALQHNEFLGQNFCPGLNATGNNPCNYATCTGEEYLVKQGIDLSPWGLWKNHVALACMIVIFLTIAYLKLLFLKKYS

[3] = tested on: MM cells; conditions: previously demonstrated; cited from earlier work
[4] = tested on: MM cell lines; assay: BLI-based cytotoxicity assay using LUC-transduced MM cell lines; design: species or system human; conditions: two MM cell lines, BMMSCs or HS-5
Protocol: Cell lines and culture: Luciferase (LUC)-transduced MM cell lines RPMI 8226, JJN3, UM9, MM1.s, U266, L363, and OPM-2 were cultured in RPMI 1640 (Life Technologies), supplemented with 10% heat-inactivated HyClone FetalClone I serum (GE Healthcare Life Sciences) and (penicillin, 10.000 U/mL; streptomycin, […]; InVitrogen,). HS-5 was cultured in DMEM (Life Technologies), supplemented with heat-inactivated FBS (Sigma) and antibiotics.

Sequence of Pgp/MDR1 (P08183 whole entry): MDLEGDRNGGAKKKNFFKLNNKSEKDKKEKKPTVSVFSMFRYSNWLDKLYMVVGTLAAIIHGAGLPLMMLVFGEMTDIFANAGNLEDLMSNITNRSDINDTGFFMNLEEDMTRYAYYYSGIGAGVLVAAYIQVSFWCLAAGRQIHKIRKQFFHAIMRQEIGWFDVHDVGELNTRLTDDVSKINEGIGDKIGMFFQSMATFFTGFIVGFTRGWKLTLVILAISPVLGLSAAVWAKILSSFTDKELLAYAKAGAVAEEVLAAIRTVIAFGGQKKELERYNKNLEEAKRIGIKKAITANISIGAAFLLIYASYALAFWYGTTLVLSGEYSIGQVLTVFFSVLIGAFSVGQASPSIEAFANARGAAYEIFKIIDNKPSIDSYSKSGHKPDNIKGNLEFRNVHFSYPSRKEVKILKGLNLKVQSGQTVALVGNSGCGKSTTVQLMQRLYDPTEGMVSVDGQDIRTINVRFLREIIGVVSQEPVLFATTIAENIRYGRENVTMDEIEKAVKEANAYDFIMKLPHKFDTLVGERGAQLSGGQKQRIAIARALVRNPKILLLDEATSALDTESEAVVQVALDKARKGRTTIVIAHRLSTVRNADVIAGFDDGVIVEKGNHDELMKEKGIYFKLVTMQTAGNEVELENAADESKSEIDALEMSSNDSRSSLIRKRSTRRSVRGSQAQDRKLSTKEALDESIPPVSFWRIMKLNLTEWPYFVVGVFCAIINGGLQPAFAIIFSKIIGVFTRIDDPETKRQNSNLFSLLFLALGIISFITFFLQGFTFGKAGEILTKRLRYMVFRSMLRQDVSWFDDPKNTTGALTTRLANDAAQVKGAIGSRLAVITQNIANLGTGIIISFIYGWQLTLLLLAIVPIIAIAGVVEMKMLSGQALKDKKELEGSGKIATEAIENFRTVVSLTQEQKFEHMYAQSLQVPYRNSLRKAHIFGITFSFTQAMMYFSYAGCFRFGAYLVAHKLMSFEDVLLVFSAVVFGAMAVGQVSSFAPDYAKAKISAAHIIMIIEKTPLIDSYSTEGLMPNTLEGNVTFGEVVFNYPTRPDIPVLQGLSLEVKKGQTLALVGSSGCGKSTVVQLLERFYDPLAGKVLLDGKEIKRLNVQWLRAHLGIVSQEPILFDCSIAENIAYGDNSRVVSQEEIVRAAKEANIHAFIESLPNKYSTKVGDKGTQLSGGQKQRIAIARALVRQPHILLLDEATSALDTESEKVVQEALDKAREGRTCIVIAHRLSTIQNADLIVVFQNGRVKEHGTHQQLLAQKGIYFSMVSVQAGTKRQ

Structure (SMILES)	lysis of MM cell lines by the drug upon co-culture with stromal cells [4]	substrate of efflux pump Pgp/MDR1 [1]	substrate of efflux pump ABCG2/BCRP [2]	further results
CCc1c2c(nc3ccc(O)cc13)-c1cc3c(c(=O)n1C2)COC(=O)[C@]3(O)CC [SN-38]	–	–	–	substrate of efflux pump Pgp/MDR1 ([1]; not told): substrates; substrate of efflux pump ABCG2/BCRP ([2]; not told): substrates
COCCn1c2c([n+](Cc3cnccn3)c1C)C(=O)c1ccccc1C2=O [YM155]	–	–	–	modulation of BMMSC-mediated protection against CTLs and daratumumab-dependent ADCC [3]: effective modulation
CC(C)C[C@H](NC(=O)[C@H](Cc1ccccc1)NC(=O)c1cnccn1)B(O)O [bortezomib, reference compound]	significantly inhibited	–	–	–
CC[C@@]1(O)C(=O)OCc2c1cc1n(c2=O)Cc2cc3c(CN(C)C)c(O)ccc3nc2-1 [topotecan]	–	substrates	substrates	–
CCc1c2c(nc3ccc(OC(=O)N4CCC(N5CCCCC5)CC4)cc13)-c1cc3c(c(=O)n1C2)COC(=O)[C@]3(O)CC [irinotecan]	–	substrates	substrates	–
COc1cccc2c1C(=O)c1c(O)c3c(c(O)c1C2=O)C[C@@](O)(C(=O)CO)C[C@@H]3O[C@H]1C[C@H](N)[C@H](O)[C@H](C)O1 [doxorubicin, reference compound]	significantly inhibited	–	–	–
